Data: PubChem BioAssay AID248 (DTP/NCI, 2004)
Where “and” joins values, the source holds several entries; their conditions need not be identical. Identical values can stand only once. Inconclusive results and toxic doses are left out.

Test system: L1210 leukemia ip in BDF1 mice, survival T/C
Test: NCI In Vivo Anticancer Drug Screen. Data for tumor model L1210 Leukemia (intraperitoneal) in B6D2F1 (BDF1) mice
Settings: endpoint: mean survival time, higher = longer survival
Procedure, shortened: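 Tumor was transplanted into mice, which were then dosed with test compound or vehicle alone. Survival was recorded for each group, and the treated figure was expressed relative to the control figure.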

With `O=C(Nc1ccc(C2=NCCN2)cc1)c1ccc(C(=O)Nc2ccc(C3=NCCN3)cc2)cc1` the T/C (dose: 0.62 mg/kg/injection, schedule: Q#A X Z (ip), vehicle: saline) was 114 % of control, the T/C (dose: 0.63 mg/kg/injection, schedule: Q01DX Z (sc), vehicle: saline) was 104 % of control and the T/C (dose: 1.25 mg/kg/injection, schedule: Q01DX Z (ip), vehicle: other) was 287 % of control. The T/C (dose: 1.25 mg/kg/injection, schedule: Q01DX Z (sc), vehicle: saline) was 101 % of control, the T/C (dose: 1.87 mg/kg/injection, schedule: Q01DX Z (ip), vehicle: carboxymethylcellulose (CMC)) was 112 % of control and the T/C (dose: 1.88 mg/kg/injection, schedule: Q03DX Z (ip), vehicle: saline) was 103 % of control. For the same compound, the T/C (dose: 2.5 mg/kg/injection, schedule: Q01DX Z (ip), vehicle: other) was 158 % of control, the T/C (dose: 2.5 mg/kg/injection, schedule: Q01DX Z (sc), vehicle: saline) was 104 % of control and the T/C (dose: 3.75 mg/kg/injection, schedule: Q01DX Z (ip), vehicle: carboxymethylcellulose (CMC)) was 121 % of control. The T/C (dose: 3.75 mg/kg/injection, schedule: Q03DX Z (ip), vehicle: saline) was 114 % of control, the T/C (dose: 4.4 mg/kg/injection, schedule: Q01DX001 (ip), vehicle: saline) was 103 % of control and the T/C (dose: 4.4 mg/kg/injection, schedule: Q07DX Z (ip), vehicle: saline) was 103 % of control. For the same compound, the T/C (dose: 5.0 mg/kg/injection, schedule: Q01DX005 (iv), vehicle: saline) was 102 % of control, the T/C (dose: 5.0 mg/kg/injection, schedule: Q01DX Z (ip), vehicle: acid diluted with saline) was 243 % of control and the T/C (dose: 5.0 mg/kg/injection, schedule: Q01DX Z (ip), vehicle: other) was 179 % of control. The T/C (dose: 5.0 mg/kg/injection, schedule: Q01DX Z (sc), vehicle: saline) was 101 % of control, the T/C (dose: 5.0 mg/kg/injection, schedule: Q#A X Z (ip), vehicle: saline) was 194 % of control and the T/C (dose: 7.5 mg/kg/injection, schedule: Q03DX Z (ip), vehicle: saline) was 115 % of control. The T/C (dose: 8.8 mg/kg/injection, schedule: Q01DX001 (ip), vehicle: saline) was 97 % of control and 112 % of control, the T/C (dose: 8.8 mg/kg/injection, schedule: Q07DX Z (ip), vehicle: saline) was 105 % of control and the T/C (dose: 10.0 mg/kg/injection, schedule: Q01DX005 (iv), vehicle: saline) was 103 % of control. The T/C (dose: 10.0 mg/kg/injection, schedule: Q01DX Z (ip), vehicle: acid diluted with saline) was 205 % of control, the T/C (dose: 10.0 mg/kg/injection, schedule: Q01DX Z (iv), vehicle: acid diluted with saline) was 123 % of control and the T/C (dose: 10.0 mg/kg/injection, schedule: Q01DX Z (sc), vehicle: acid diluted with saline) was 175 % of control. For the same compound, the T/C (dose: 10.0 mg/kg/injection, schedule: Q#A X Z (ip), vehicle: saline) was 291 % of control, the T/C (dose: 15.0 mg/kg/injection, schedule: Q01DX Z (ip), vehicle: carboxymethylcellulose (CMC)) was 168 % of control and 269 % of control and 197 % of control and the T/C (dose: 15.6 mg/kg/injection, schedule: Q01DX Z (sc), vehicle: other) was 181 % of control. For the same compound, the T/C (dose: 17.5 mg/kg/injection, schedule: Q01DX001 (ip), vehicle: saline) was 112 % of control and 264 % of control, the T/C (dose: 20.0 mg/kg/injection, schedule: Q01DX005 (iv), vehicle: saline) was 115 % of control and the T/C (dose: 20.0 mg/kg/injection, schedule: Q01DX Z (ip), vehicle: acid diluted with saline) was 158 % of control. The T/C (dose: 20.0 mg/kg/injection, schedule: Q01DX Z (ip), vehicle: saline) was 316 % of control, the T/C (dose: 20.0 mg/kg/injection, schedule: Q01DX Z (sc), vehicle: acid diluted with saline) was 165 % of control and the T/C (dose: 20.0 mg/kg/injection, schedule: Q#A X Z (ip), vehicle: saline) was 178 % of control. The T/C (dose: 30.0 mg/kg/injection, schedule: Q01DX Z (ip), vehicle: acid diluted with saline) was 182 % of control, the T/C (dose: 30.0 mg/kg/injection, schedule: Q01DX Z (ip), vehicle: carboxymethylcellulose (CMC)) was 320 % of control and the T/C (dose: 30.0 mg/kg/injection, schedule: Q03DX Z (ip), vehicle: saline) was 200 % of control. The T/C (dose: 31.3 mg/kg/injection, schedule: Q01DX004 (im), vehicle: olive oil, sesame oil, peanut oil) was 97 % of control, the T/C (dose: 31.3 mg/kg/injection, schedule: Q01DX004 (im), vehicle: saline) was 104 % of control and the T/C (dose: 31.3 mg/kg/injection, schedule: Q01DX Z (ip), vehicle: other) was 112 % of control. The T/C (dose: 31.3 mg/kg/injection, schedule: Q01DX Z (sc), vehicle: other) was 195 % of control, the T/C (dose: 35.0 mg/kg/injection, schedule: Q07DX Z (ip), vehicle: saline) was 160 % of control and the T/C (dose: 40.0 mg/kg/injection, schedule: Q01DX Z (ip), vehicle: saline) was 348 % of control. For the same compound, the T/C (dose: 40.0 mg/kg/injection, schedule: Q#A X Z (ip), vehicle: saline) was 210 % of control.
